US7390523B2, “Method of forming a diffusion barrier layer for implantable devices” (Advanced Cardiovascular Systems Inc., priority 2000, dated 2008)
Values joined by “and” are separate entries in the source; they are usually repeats but may differ in a detail not shown here. Identical values can stand only once. One block for each compound: values may come before it. *1 amine or outer side, *2 acyl side, *3 side chain or, on linkers, in order; H or OH if unused. Where a SMILES comes first, the peptide text is derived from it. Bridges are numbered along the chain shown (N, C = ends). Roman numbers before positions name the chains, in order. [ ]: non-standard residue; d: D form. Actinocin(9to1) = Cc1c2oc3c(C)ccc(C(=O)[*:1])c3nc-2c(C(=O)[*:2])c(N)c1=O; NMeV = CN[C@H](C(=O)O)C(C)C; Sar = CNCC(=O)O

Tests used:
[1] = 24 hour elution of vinblastine from EVOH coated stents in phosphated saline solution, HPLC analysis; assay type: physicochemical; details: for ug Release: Sterilized (electron beam) stent, 5 ml phosphated saline pH 7.4, room temperature; for Total uG Released / uG Release per Hour: Sterilized stent
Procedure: MULTI-LINK® stents were cleaned by placement in an ultrasonic bath of isopropyl alcohol solution for 10 minutes. The stents were dried and plasma cleaned in a plasma chamber. An EVOH solution was made with 1 gram of EVOH and 7 grams of DMSO, making an EVOH:DMSO ratio of 1:7. Vinblastine was added to the 1:7 EVOH:DMSO solution. Vinblastine constituted 2.5% by weight of the total weight of the solution. The solution was vortexed and placed in a tube. The cleaned MULTI-LINK® stents were attached to mandrel wires and dipped into the solution. The coated stents were passed over a hot plate, for about 3-5 seconds, with a temperature setting of about 60° C. The coated stents were cured for 6 hours in an air box then placed in a vacuum oven at 60° C. for 24 hours. The above process was repeated twice, having a total of three layers. The average weight of the coating was 0.00005 gram, with an estimated vinblastine concentration of 12 microgram per stent. Some of the stents were sterilized by electron beam radiation. The sterilized and unsterilized vinblastine coated stents were tested for a 24 hour elution period by placing one sterilized and one unsterilized stent in 5 ml of phosphated saline solution (pH 7.4) at room temperature with rotational motion. The amount of vinblastine eluted was evaluated by High Performance Liquid Chromatography (HPLC) analysis. The results of this test are given below in Tables 4A and 4B and plotted in FIG. 3.

[2] = system: coronary arteries of a porcine stent injury model; assay: Reduction in restenosis in the porcine coronary artery stent injury model; assay type: in vivo, Domestic swine; details: 28-day endpoint; for Percent Diameter Stenosis, angiographic data (QCA): microporous balloon catheter delivery before stenting
Procedure: Porcine coronary models were used to assess the degree of the inhibition of neointimal formation in the coronary arteries of a porcine stent injury model by Actinomycin D, delivered with a microporous balloon catheter (1×10^6 pores/mm^2 with sizes ranging from 0.2-0.8 micron).
The preclinical animal testing was performed in accordance with the NIH Guide for Care and Use of Laboratory Animals. Domestic swine were utilized to evaluate effect of the drug on the inhibition of the neointimal formation. Each testing procedure, excluding the angiographic analysis at the follow-up endpoints, was conducted using sterile techniques. During the study procedure, the activated clotting time (ACT) was monitored regularly to ensure appropriate anticoagulation. Base line blood samples were collected for each animal before initiation of the procedure. Quantitative coronary angiographic analysis (QCA) and intravascular ultrasound (IVUS) analysis was used for vessel size assessment.
The vessels at the sites of the delivery were denuded by inflation of the PTCA balloons to 1:1 balloon to artery ratio and moving the balloons back and forth 5 times. The drug was delivered to the denuded sites at 3.5 atm (3.61 Kg/sq cm) for 2 minutes using the microporous balloon catheters before stent deployment. The average volume of delivery was about 3.3+/−1.2 ml. Following drug delivery, stents were deployed at the delivery site such that final stent to artery ratio was 1.1:1.
QCA and IVUS analyses were used for stent deployment guidance. Pre-stenting IVUS measurements of the lumen size at the targeted vessel sites were performed for determination of the balloon (size) inflation pressure. Quantitative analysis of the stented coronary arteries to compare pre-stenting, post-stenting, follow-up minimal luminal diameters, stent recoil, and balloon/stent to artery ratio were performed. Following stent implantation and final angiogram, all devices were withdrawn and the wounds closed; the animals were allowed to recover from anesthesia as managed by the attending veterinarian or animal care professionals at the research center.
Upon return to the research laboratory at the 28-day endpoint, angiographic assessments were performed. Coronary artery blood flow was assessed and the stented vessels were evaluated to determine minimal lumen diameter. The animals were euthanized following this procedure at the endpoint. Following euthanasia, the hearts were pressure perfusion fixed with formalin and prepared for histological analysis, encompassing light microscopy, and morphometry. Morphometric analysis of the stented arteries included assessment of the position of the stent struts and determination of vessel/lumen areas, percent (%) stenosis, injury scores, intimal and medial areas and intima/media ratios. Percent stenosis is quantitated by the following equation: 100(IEL area−lumen area)/IEL area
where IEL is the internal elastic lamia.
The control group of animals received delivery of water instead of the drug. The test group of animals received actinomycin D in two different concentration of 10^−5M and 10^−4M. […] FIGS. 5A and 5B illustrate sample pictures of the histology slides of the coronary vessels from the control and the Dose 1 group, respectively.

ug Release ([1]; 0 Hours): 0 µg | ug Release ([1]; 0.5 Hours): 2.14 µg | ug Release ([1]; 3 Hours): 1.7 µg | ug Release ([1]; 4 Hours): 0.28 µg | ug Release ([1]; 6 Hours): 0.26 µg | ug Release ([1]; 24 Hours): 2.05 µg | Total uG Released ([1]; 0 Hours): 0 uG | uG Release per Hour ([1]; 0 Hours): 0 uG per Hour | Total uG Released ([1]; 0.5 Hours): 2.14 uG | uG Release per Hour ([1]; 0.5 Hours): 4.28 uG per Hour | Total uG Released ([1]; 3 Hours): 3.84 uG | uG Release per Hour ([1]; 3 Hours): 0.68 uG per Hour | Total uG Released ([1]; 4 Hours): 4.12 uG | uG Release per Hour ([1]; 4 Hours): 0.28 uG per Hour | Total uG Released ([1]; 6 Hours): 4.38 uG | uG Release per Hour ([1]; 6 Hours): 0.13 uG per Hour | Total uG Released ([1]; 24 Hours): 6.43 uG | uG Release per Hour ([1]; 24 Hours): 0.11 uG per Hour | effect of electron beam radiation procedure on the release of vinblastine from EVOH ([1]; sterilized vs unsterilized coated stents, 24 hour elution): does not interfere
SMILES: CC[C@]1(O)C[C@@H]2CN(CCc3c([nH]c4ccccc34)[C@@](C(=O)OC)(c3cc4c(cc3OC)N(C)[C@H]3[C@@](O)(C(=O)OC)[C@H](OC(C)=O)[C@]5(CC)C=CCN6CC[C@]43[C@@H]65)C2)C1 [Vinblastine]

SMILES: Cc1c2oc3c(C)ccc(C(=O)N[C@@H]4C(=O)N[C@H](C(C)C)C(=O)N5CCC[C@H]5C(=O)N(C)CC(=O)N(C)[C@@H](C(C)C)C(=O)O[C@@H]4C)c3nc-2c(C(=O)N[C@@H]2C(=O)N[C@H](C(C)C)C(=O)N3CCC[C@H]3C(=O)N(C)CC(=O)N(C)[C@@H](C(C)C)C(=O)O[C@@H]2C)c(N)c1=O [actinomycin D] (I: T[dV]P[Sar][NMeV] / II: T[dV]P[Sar][NMeV]; ester I:1-I:C, II:1-II:C; linker I:N-II:N via Actinocin(9to1))
Percent Stenosis (IEL area-lumen area)/IEL area, histomorphometric data ([2]; DOSE 1 1E−05 M, n = 30): 51.8% | Residual Lumen (Lumen area)/IEL area, histomorphometric data ([2]; DOSE 1 1E−05 M, n = 30): 0.49 | Percent Diameter Stenosis, angiographic data (QCA) ([2]; DOSE 1 1E−05 M, n = 10): 36.8% | Percent Stenosis (IEL area-lumen area)/IEL area, histomorphometric data ([2]; DOSE 2 1E−04 M, n = 21): 54.1% | Residual Lumen (Lumen area)/IEL area, histomorphometric data ([2]; DOSE 2 1E−04 M, n = 21): 0.46 | Percent Diameter Stenosis, angiographic data (QCA) ([2]; DOSE 2 1E−04 M, n = 7): 32.3+/−11.7% and 32.3%
